Results on 6 compounds are retold here after patent US9175036B2, “Antimicrobial water treatment membranes and production thereof” (BEN-GURION UNVERSITY OF THE NEGEV RESEARCH AND DEVELOPMENT …, priority 2009, dated 2015).

Each structure is given as a SMILES string. Values after ≈ are worked out from the molar mass of the structure shown. Square brackets hold non-standard residues; d marks the D form. Peptide text beside a SMILES is read from it. βAla = NCCC(=O)O

One series deals with Enterobacter. In kind it is cell-based. Here is the method:
The IC50 is determined by an essay, suitable for the specific film-forming microorganism in question. For example, in the present invention, the Enterobacter assay, which is described in detail in the methods section below, was used to determine the antimicrobial activities of the tested peptides.
Quantitative Biofilm Growth Inhibition Assay in a 96-Wells Microtiter Plate:
Enterobacter culture (50 ml) was grown in tryptic soy broth media (TBS; prepared according to manufacturer instructions) overnight at 25° C. On the next day the turbidity of the culture was measured at 600 nm (Biomate 5 UV-Vis spectrophotometer, Thermo Fisher Scientific, Waltham, Mass.) and, if necessary, TSB was added to dilute the culture until the OD was 1.
Then 96 wells polystyrene microtiter plates (flat bottom, transparent, Becton Dickinson, Franklin Lakes, New-Jersey) were filled as following: Negative control wells (without bacteria) were filled with 125 μl TSB media and 25 μl of DDW:PBS1:1 buffer solution; Positive control wells (without peptide solution) were filled with 110 μl TSB media, 25 μl of DDW:PBS1:1 buffer solution and 15 μl of Enterobacter culture solution; Wells that contained AMPs at different concentrations were filled with 110 μl TSB media, 25 μl of peptide solution and 15 μl of Enterobacter culture solution.
The plates were incubated at 25° C. overnight. On the next day the plates were gently rinsed 5 times with distilled water to remove the planktonic bacteria and then dried at room temperature for 10 minutes. Then the biofilm on the walls of the wells was dyed by adding 200 μl, of 3% crystal violet (CV) to the wells. After 15 minutes at room temperature, the plates were gently rinsed 5 times with distilled water to remove excess dye and dried at room temperature for 10 minutes (Djordjevic, Wiedmann & McLandsborough 2002). The dry plates were filled with 200 μl ethanol, covered and gently agitated (Duomax 1030 rocking platform shaker, Heidolph, Kelheim, Germany) for 1 hour. The absorbance of extracted color was measured in a plate reading spectrophotometer (Infinite M200, Tecan, Mannedorf, Switzerland) at 595 nm.
The effect of linking the arm to a peptide, on the antimicrobial activity of the peptides was assessed by measuring the peptide activity in 96-microtitter plates in solution and comparing to activities of the normal peptides. Experiments were performed in water and in 3% NaCl solution. Table 6 presents the antimicrobial activity (IC50) of peptide-arm systems, in water and in 3% NaCl solution. Values were extracted from dose-response curves.
Different concentration solutions of peptides, bought or prepared as detailed in the methods section above, were prepared by diluting a stock solution with 1% ACN. Stock solution was prepared by dissolving water soluble peptides in DDW:PBS1:1. PBS (pH=7.4) was prepared by adding to 800 ml DDW, 8 grams NaCl, 0.2 grams KCl, 1.44 grams Na2HPO4 and 0.2 grams KH2PO4.
To evaluate whether attachment of a tether to the AMPs has an effect on the inhibitory potency, a PEGylated peptide (HS-PEG-D-Modelin-1) was prepared, and its inhibitory potency compared to that of the ‘normal’ peptide All-D-Modelin-1. Peptides were diluted in 2-fold serial dilutions, and the antibacterial activity of the peptides was determined in sterile 96-multititter plates.

For series [1], the system named is proteolytic enzymes (trypsin, chymotrypsin, pronase E). In kind it is in vitro ADME. The method, then:
Resistance to proteolysis can be determined according to trypsin, chymotrypsin or pronase E assay, as detailed below in the Methods section, namely by adding to each 90 μl of peptide solution, 10 μl of enzyme solution, containing either a mixture of 0.5 μg trypsin (0.05 mg/ml) and 0.5 μg chymotrypsin (0.05 mg/ml) or 4 μg pronase E (0.4 mg/ml) in 0.001M HCl. The enzymatic degradation of the peptide is monitored at controlled temperature of 25° C. A peptide can be considered to be resistant to proteolysis if it withstands this assay for at least 1 week, maintaining at least 90% of its initial concentration after this period.
(§1) Proteolytic Stability Assay of Peptides:
Stock solution (0.56 mg/ml) of each peptide was prepared by dissolving the peptide in PBS (pH=7.4). […] The enzymatic degradation of the peptide was monitored at controlled temperature of 25° C. by RP-HPLC with detection at 220 nm using Phenomenex C18 4.6×250 mm column with 5 μm particle size and 110 Å pore size. […]
Enzymes concentrations were determined by preliminary experiment that was performed to screen for concentrations allowing complete degradation of C-Modelin-1 within 1-2 hours. 10 μl of enzyme solution with varying concentrations were added to 90 μl of peptide solution (0.56 mg/ml) and enzymatic degradation of the peptide was monitored by RP-HPLC. […]

Another series relates to pronase E. The series is classed as in vitro ADME. The method, then:
as §1
Stock solution (0.56 mg/ml) of each peptide was prepared by dissolving the peptide in PBS (pH=7.4). To each 90 μl of peptide solution 10 μl of enzyme solution, containing either a mixture of 0.5 μg trypsin (0.05 mg/ml) and 0.5 μg chymotrypsin (0.05 mg/ml) or 4 μg pronase E (0.4 mg/ml) in 0.001M HCl, was added. The enzymatic degradation of the peptide was monitored at controlled temperature of 25° C. by RP-HPLC with detection at 220 nm using Phenomenex C18 4.6×250 mm column with 5 μm particle size and 110 Å pore size. Elution gradient was: t=0 minutes, B=15%; t=5 minutes, B=15%; t=40 minutes, B=70%; t=42 minutes, B=95%; t=52 minutes, B=95% (flow rate 1 ml/minute).
Enzymes concentrations were determined by preliminary experiment that was performed to screen for concentrations allowing complete degradation of C-Modelin-1 within 1-2 hours. 10 μl of enzyme solution with varying concentrations were added to 90 μl of peptide solution (0.56 mg/ml) and enzymatic degradation of the peptide was monitored by RP-HPLC.
The enzymatic degradation was monitored at a fixed temperature of 25° C. by RP-HPLC at 220 nm, as described before. Elution gradient started with 85% A/15% B for 5 minutes continued with 30% A/70% B for 35 minutes and ended with 5% A-95% B for 12 minutes.
All the enzymes were used in concentrations allowing complete degradation of C-Modelin-1 within […].

Series [2] relates to biofilm. Kind of series: Biovolume of biofilm on graft-polymerized RO membranes (FIGS. 4-6). The series is classed as cell-based. Particulars: immobilized on RO membrane after graft polymerization and 1,4-butadiamine; FIGS. 4 and 5. From the text: FIGS. 4 and 5 show the biovolume of biofilm on RO membranes modified with Cys-Modelin-1, whereas in FIG. 4: (A) is an unmodified membrane (control), (B) is after Graft polymerization (GP), (C) is after GP and 1,4-butadiamine, (D) is after GP, 1,4-butadiamine and MI (maleimide-hexanoic acid), and (E) is after GP, 1,4-butadiamine, MI and C-Modelin-1.
Another example for immobilization through multivalent system is shown in FIG. 6, showing the volume of the biofilm by graft polymerization with 0.2:0.2 M MA:PEGM and immobilization with All-D-Cys-Modelin-1. […] The inhibition was very much dependent of the graft polymerization step: Grafting by 0.2:0.2 M of monomers PEGMA:MA (see Scheme 6 for monomer structures) gave the best results.

Series [3] has as its system biofilm. Briefly: Confocal microscope analysis of biofilm developed on modified RO membranes. The series is classed as cell-based. The settings on record: biofilm on RO membrane modified with the peptide. The method, then:
b) Quantitative Measurements:
For biofilm growth measurements, modified membranes were tested in static conditions and in a flow-through system.
For static conditions membranes were glued with RTV 186 glue to a 1 cm×1 cm glass slides and were incubated in 24-wells plate, containing Green fluorescent protein (GFP) expressing Pseudomonas aeruginosa culture, for 18 hours (37° C.). Then, the membranes were washed with DDW to remove planktonic bacteria and the formed biofilm was detected by Leica DM 2500 confocal laser scanning microscope (CLSM, Wetzlar, Germany).
For the flow-through system, 1 cm×1 cm membranes were glued to a 2.6 cm×7.6 cm glass slide and the slide was placed in a flow cell. First, GFP expressing Pseudomonas aeruginosa was introduced to the cell and incubated for 1 hour. Then, the planktonic bacteria were washed out and sterile growth media was brought in to the cell with 50 ml/h flow rate. After 24 hours the sample was removed from the cell and biofilm fluorescence was detected by confocal laser scanning microscope. The dyed membranes were analyzed by a confocal laser scanning microscope.
Quantitative and qualitative indications for biofilm formation on modified vs. non modified RO membranes were checked.
The results of the confocal microscope analysis of the biofilm that developed on the different membranes showing reduced biofilm formation on the modified membranes are summarized in Table 15.

On to `CC(C)C[C@@H](NC(=O)[C@@H](CCCCN)NC(=O)[C@H](N)CS)C(=O)N[C@H](Cc1c[nH]c2ccccc12)C(=O)N[C@H](CCCCN)C(=O)N[C@H](CCCCN)C(=O)N[C@H](Cc1c[nH]c2ccccc12)C(=O)N[C@H](C)C(=O)N[C@H](CCCCN)C(=O)N[C@H](CCCCN)C(=O)N[C@H](Cc1c[nH]c2ccccc12)C(=O)N[C@H](CC(C)C)C(=O)N[C@H](CCCCN)C(=O)N[C@H](CC(C)C)C(=O)N[C@H](Cc1c[nH]c2ccccc12)C(=O)N[C@H](CCCCN)C(=O)N[C@H](C)C(=O)N[C@H](Cc1c[nH]c2ccccc12)C(=O)O` [All-D C-Modelin-1, CKLWKKWAKKWLKLWKAW] (H-[dC][dK][dL][dW][dK][dK][dW][dA][dK][dK][dW][dL][dK][dL][dW][dK][dA][dW]-OH), for which the half-inhibitory concentration (IC50) with Enterobacter is 10 µg/mL (≈ 4.11 µM). In series [1], the “higher stability compared with the unprotected Cys-Modelin-1” value is “over 100 fold” and the “remained stable when treated with the proteolytic enzymes” value is “over 2 weeks”.

As for `CC(C)C[C@H](NC(=O)[C@H](CCCCN)NC(=O)[C@H](CC(C)C)NC(=O)[C@H](Cc1c[nH]c2ccccc12)NC(=O)[C@H](CCCCN)NC(=O)[C@H](CCCCN)NC(=O)[C@H](C)NC(=O)[C@H](Cc1c[nH]c2ccccc12)NC(=O)[C@H](CCCCN)NC(=O)[C@H](CCCCN)NC(=O)[C@H](Cc1c[nH]c2ccccc12)NC(=O)[C@H](CC(C)C)NC(=O)[C@H](CCCCN)NC(=O)[C@@H](N)CS)C(=O)N[C@@H](Cc1c[nH]c2ccccc12)C(=O)N[C@@H](CCCCN)C(=O)N[C@@H](C)C(=O)N[C@@H](Cc1c[nH]c2ccccc12)C(=O)O` [C-Modelin-1, CKLWKKWAKKWLKLWKAW] (H-CKLWKKWAKKWLKLWKAW-OH), in the series on pronase E, the “digestion first detected after” value amounted to 5 min and the “peptides completely degraded after” value stood at 135 min. In addition, the half-maximal inhibitory concentration (IC50) with Enterobacter was found to be 11 µg/mL (≈ 4.52 µM). The compound also returned a reduced biofilm growth in the series on biofilm [2] of 65%.

As to `CC(C)C[C@H](NC(=O)[C@H](CCCCN)NC(=O)[C@H](CC(C)C)NC(=O)[C@H](Cc1c[nH]c2ccccc12)NC(=O)[C@H](CCCCN)NC(=O)[C@H](CCCCN)NC(=O)[C@H](C)NC(=O)[C@H](Cc1c[nH]c2ccccc12)NC(=O)[C@H](CCCCN)NC(=O)[C@H](CCCCN)NC(=O)[C@H](Cc1c[nH]c2ccccc12)NC(=O)[C@H](CC(C)C)NC(=O)[C@H](CCCCN)NC(=O)[C@@H](N)CS)C(=O)N[C@@H](Cc1c[nH]c2ccccc12)C(=O)N[C@@H](CCCCN)C(=O)N[C@@H](C)C(=O)N[C@@H](Cc1c[nH]c2ccccc12)C(=O)NCCC(=O)O` [C-Modelin-1-βAla, CKLWKKWAKKWLKLWKAW-βAla] (H-CKLWKKWAKKWLKLWKAW[βAla]-OH), in the series on pronase E, the “digestion first detected after” value amounted to 5 min and the “peptides completely degraded after” value was 135 min. In the series with Enterobacter, the IC50 was 4 µg/mL (≈ 1.6 µM).

With `N=C(N)NCCC[C@H](NC(=O)CNC(=O)CNC(=O)CNC(=O)[C@@H](N)CS)C(=O)N[C@@H](CCCNC(=N)N)C(=O)N[C@@H](Cc1c[nH]c2ccccc12)C(=O)N[C@@H](Cc1c[nH]c2ccccc12)C(=O)N[C@@H](CCCNC(=N)N)C(=O)N[C@@H](Cc1ccccc1)C(N)=O` [CG3-Hexapeptide-4, CGGGRRWWRF-NH2] (H-CGGGRRWWRF-NH2; N-terminus assumed), in the series with Enterobacter, the “IC50 Normal conditions” value came to 160 µg/mL (≈ 125 µM) and the “IC50 in 3% Aqueous NaCl” value amounted to 150 µg/mL (≈ 117 µM). Moreover, in the series on biofilm [3], the Biovolume was 8.9 * 10^4 μm^3 and the Thickness was 9.5 μm.

With `CC(C)C[C@H](NC(=O)[C@H](CCCCN)NC(=O)CNC(=O)CNC(=O)CNC(=O)CNC(=O)[C@@H](N)CS)C(=O)N[C@@H](Cc1c[nH]c2ccccc12)C(=O)N[C@@H](CCCCN)C(=O)N[C@@H](CCCCN)C(=O)N[C@@H](Cc1c[nH]c2ccccc12)C(=O)N[C@@H](C)C(=O)N[C@@H](CCCCN)C(=O)N[C@@H](CCCCN)C(=O)N[C@@H](Cc1c[nH]c2ccccc12)C(=O)N[C@@H](CC(C)C)C(=O)N[C@@H](CCCCN)C(=O)N[C@@H](CC(C)C)C(=O)N[C@@H](Cc1c[nH]c2ccccc12)C(=O)N[C@@H](CCCCN)C(=O)N[C@@H](C)C(=O)N[C@@H](Cc1c[nH]c2ccccc12)C(=O)O` [CG4-Modelin-1] (H-CGGGGKLWKKWAKKWLKLWKAW-OH; N-terminus assumed), the “IC50 Normal conditions” value with Enterobacter was found to be 100 µg/mL (≈ 37.6 µM). Besides, in the series with biofilm [3], the Biovolume is reported as 9.3 * 10^4 μm^3 and the Thickness was determined as 9.5 μm.

With `O=C(O)CCCCCN1C(=O)C=CC1=O` [maleimide-hexanoic acid, 6-maleimidohexanoic acid], the reduced biofilm growth with biofilm [2] was 95%.
